Results on 50 compounds are retold here after US8952014B2, “Pyrimidine derivatives which are CGRP—antagonists” (Boehringer Ingelheim International GmbH, priority 2008, dated 2015).

T1 sequence (Q16602 23-461): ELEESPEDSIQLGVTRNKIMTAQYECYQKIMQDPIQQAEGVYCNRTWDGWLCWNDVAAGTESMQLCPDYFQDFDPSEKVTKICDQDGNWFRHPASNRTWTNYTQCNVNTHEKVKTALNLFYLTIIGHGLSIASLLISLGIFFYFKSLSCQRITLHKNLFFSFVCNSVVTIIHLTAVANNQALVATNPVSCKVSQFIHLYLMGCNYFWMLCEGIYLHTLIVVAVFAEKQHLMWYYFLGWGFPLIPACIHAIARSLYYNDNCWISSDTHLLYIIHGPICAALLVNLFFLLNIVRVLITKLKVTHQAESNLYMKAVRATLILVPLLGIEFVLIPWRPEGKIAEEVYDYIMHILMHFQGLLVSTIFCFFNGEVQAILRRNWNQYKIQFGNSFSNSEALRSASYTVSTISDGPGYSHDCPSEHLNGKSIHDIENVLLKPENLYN
T1 sequence (O60894 27-148): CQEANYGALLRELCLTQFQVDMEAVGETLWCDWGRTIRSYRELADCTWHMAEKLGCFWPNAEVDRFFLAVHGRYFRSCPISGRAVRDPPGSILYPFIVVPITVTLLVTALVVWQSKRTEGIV

The assay addresses T1, human CGRP receptor (Homo sapiens, UniProt O60894+Q16602).
T1 construct: SK-N-MC membranes (˜20 μg protein) are incubated for 180 minutes at ambient temperature; endogenous in cells; host or cells: SK-N-MC cells (membranes)
As to the kind of experiment: Binding studies with SK-N-MC cells (125I-CGRP displacement from membranes). Conditions: 50 pM 125I-iodotyrosyl-CGRP, 180 min, ambient temperature. As for the experimental part: A. Binding Studies with SK-N-MC Cells (Expressing the Human CGRP Receptor)
SK-N-MC membranes (˜20 μg protein) are incubated for 180 minutes at ambient temperature with 50 pM ^125I-iodotyrosyl-Calcitonin-Gene-Related Peptide and increasing concentrations of the test substances in a total volume of 250 μl (assay buffer: 10 mM tris, 50 mM NaCl, 5 mM MgCl2, 1 mM EDTA, pH=7.4). The incubation is ended by rapid filtration through GF/B-glass fibre filters treated with polyethyleneimine (0.1%) using a cell harvester. The protein-bound radioactivity is measured using a gamma counter. Non-specific binding is defined as the bound radioactivity after the presence of 1 μM BIBN4096BS during incubation.
The concentration binding curves are analysed using computer-aided non-linear curve fitting.
On to `COc1ccc2c(c1)CCN(C1CCN(c3cc(Oc4cc(C)c5[nH]c(=O)oc5c4)ncn3)CC1)C(=O)N2` [(1)], for which the Ki turned out to be 2 nM.

Consider `Cc1cc(Oc2cc(N3CCC(n4c(=O)[nH]c5ncccc54)CC3)ncn2)cc2oc(=O)n(C)c12` [(2)], for which the inhibition constant (Ki) was determined as 20 nM.

On to `COc1ccc2c(c1)CCN(C1CCN(c3cc(Oc4cc(C)c5c(c4)oc(=O)n5C)ncn3)CC1)C(=O)N2` [(3)], for which the Ki was determined as 23 nM.

`Cc1ccc(Oc2cc(N3CCC(n4c(=O)[nH]c5ncccc54)CC3)ncn2)cc1C` [(4)]: affinity was put at a Ki of 175 nM.

With `Cc1cc(Oc2cc(N3CCC(n4c(=O)[nH]c5ncccc54)CC3)ncn2)cc2oc(=O)[nH]c12` [(5)], the affinity, expressed as Ki, was 3 nM.

`Cc1cc(Nc2cc(N3CCC(n4c(=O)[nH]c5ncccc54)CC3)ncn2)cc2oc(=O)[nH]c12` [(6)] came in with a Ki of 4 nM.

Compound `COc1ccc2c(c1)CCN(C1CCN(c3cc(Nc4cc(C)c5[nH]c(=O)oc5c4)ncn3)CC1)C(=O)N2` [(7)] yielded a Ki of 5 nM.

On to `COc1ccc2c(c1)CCN(C1CCN(c3cc(Nc4cc(C)c5[nH]c(C)nc5c4)ncn3)CC1)C(=O)N2` [(8)], for which the Ki was found to be 12 nM. Against the preceding compound, the Ki is about 2.4-fold higher.

`Cc1nc2cc(Nc3cc(N4CCC(n5c(=O)[nH]c6c7ccccc7ncc65)CC4)ncn3)cc(C)c2[nH]1` [(9)]: the Ki came out at 37 nM.

The compound `COc1ccc2c(c1)CCN(C1CCN(c3cc(Nc4cc(C)c5c(c4)oc(=O)n5C)ncn3)CC1)C(=O)N2` [(10)] displayed a Ki of 49 nM.

Regarding `COc1ccc2c(c1)CCN(C1CCN(c3cc(Nc4cc(C)c5[nH]ncc5c4)ncn3)CC1)C(=O)N2` [(11)], the Ki turned out to be 54 nM.

As to `COc1ccc2c(c1)CCN(C1CCN(c3cc(Nc4cc(C)c5c(c4)nc(C)n5C)ncn3)CC1)C(=O)N2` [(12)], affinity was put at a Ki of 61 nM.

Compound `Cc1nc2cc(Nc3cc(N4CCC(n5c(=O)[nH]c6ncccc65)CC4)ncn3)cc(C)c2[nH]1` [(13)] gave a Ki of 68 nM.

In turn, `Cc1cc(Nc2cc(N3CCC(n4c(=O)[nH]c5ncccc54)CC3)ncn2)cc2oc(=O)n(C)c12` [(14)] returned a Ki of 81 nM.

Regarding `COc1ccc2c(c1)CCN(C1CCN(c3cc(N(C(C)=O)c4cc(C)c5c(c4)oc(=O)n5C)ncn3)CC1)C(=O)N2` [(15)], the Ki amounted to 102 nM.

Turning to `COc1ccc2c(c1)CCN(C1CCN(c3cc(Nc4cc(C)c5oc(C)nc5c4)ncn3)CC1)C(=O)N2` [(16)], the Ki is 187 nM.

The compound `COc1ccc2c(c1)CCN(C1CCN(c3cc(Nc4cc(C)c(O)c(C)c4)ncn3)CC1)C(=O)N2` [(17)] returned a Ki of 198 nM. This Ki and that of the compound before are within 1.5-fold of each other.

Take `Cc1cc(Nc2cc(Nc3ccc4c(c3)CC3(C4)C(=O)Nc4ncccc43)ncn2)cc2oc(=O)[nH]c12` (centres unmarked) [(18)]: the affinity corresponds to a Ki of 227 nM.

In turn, `Cc1nc2cc(Nc3cc(Nc4ccc5c(c4)CC4(C5)C(=O)Nc5ncccc54)ncn3)cc(C)c2[nH]1` (centres unmarked) [(19)] gave a Ki of 241 nM.

`Cc1nc2cc(Nc3cc(N4CCC(n5c(=O)[nH]c6ncccc65)CC4)ncn3)cc(C)c2o1` [(20)] came in with a Ki of 481 nM.

`COc1ccc2c(c1)CCN(C1CCN(c3cc(Sc4cc(C)c5[nH]c(=O)oc5c4)ncn3)CC1)C(=O)N2` [(21)] displayed a Ki of 2 nM.

Compound `COc1ccc2c(c1)CCN(C1CCN(c3cc(Oc4cc(C)c5[nH]c(=O)oc5c4)nc(C)n3)CC1)C(=O)N2` [(22)] yielded an inhibition constant Ki of 5 nM. Against the preceding compound, the Ki is about 2.5-fold higher.

`Cc1cc(Oc2cc(N3CCC4(CC3)OC(=O)Nc3ncccc34)ncn2)cc2oc(=O)[nH]c12` [(23)] came in with a Ki of 1 nM.

On to `Cc1nc(Nc2cc(C)c3[nH]c(=O)oc3c2)cc(N2CCC(n3c(=O)[nH]c4ncccc43)CC2)n1` [(24)], for which the Ki was 3 nM. This Ki lies about 3-fold higher than the previous one.

The compound `COc1ccc2c(c1)CCN(C1CCN(c3cc([S+]([O-])c4cc(C)c5[nH]c(=O)oc5c4)ncn3)CC1)C(=O)N2` (centres unmarked) [(25)] had a Ki of 18 nM. Compared with the last compound, the Ki is about 6-fold higher.

For the compound `COc1ccc2c(c1)CCN(C1CCN(c3cc(S(=O)(=O)c4cc(C)c5[nH]c(=O)oc5c4)ncn3)CC1)C(=O)N2` [(26)], the affinity, expressed as Ki, was 45 nM.

As for `COc1ccc2c(c1)CCN(C1CCN(c3cc(Oc4cnc5ccccc5n4)ncn3)CC1)C(=O)N2` [(27)], affinity was put at a Ki of 207 nM.

Compound `COc1ccc2c(c1)CCN(C1CCN(c3cc(Oc4cc(C)c5nc(CC#N)[nH]c5c4)ncn3)CC1)C(=O)N2` [(28)] showed an inhibitory constant (Ki) of 4 nM. This Ki is about 52-fold lower than that of the compound before.

`COc1ccc2c(c1)CCN(C1CCN(c3cc(Oc4cc(C)c5nc(C)[nH]c5c4)ncn3)CC1)C(=O)N2` [(29)] yielded a Ki of 3 nM.

`COc1ccc2c(c1)CCN(C1CCN(c3cc(Oc4cc(C)nc5ccccc45)ncn3)CC1)C(=O)N2` [(31)]: the Ki was 129 nM. Against the preceding compound, the Ki is about 43-fold higher.

Compound `COc1ccc2c(c1)CCN(C1CCN(c3cc(Oc4cc(C)c5nc[nH]c5c4)ncn3)CC1)C(=O)N2` [(32)] yielded an inhibitory constant (Ki) of 15 nM.

`COc1ccc2c(c1)CCN(C1CCN(c3cc(Oc4cc(C)c5nc(CC6CC6)[nH]c5c4)ncn3)CC1)C(=O)N2` [(33)] registered a Ki of 8 nM.

`Cc1nc2c(C)cc(Oc3cc(N4CCC(n5c(=O)[nH]c6ncccc65)CC4)ncn3)cc2[nH]1` [(34)] displayed a Ki of 18 nM.

As for `COc1ccc2c(c1)CCN(C1CCN(c3cc(Oc4cc(C)c5nc(CC(F)(F)F)[nH]c5c4)ncn3)CC1)C(=O)N2` [(35)], the affinity, expressed as Ki, was 16 nM.

`COc1ccc2c(c1)CCN(C1CCN(c3cc(Oc4cc(C)nc(C)c4)ncn3)CC1)C(=O)N2` [(36)] yielded a Ki of 61 nM.

In turn, `COc1ccc2c(c1)CCN(C1CCN(c3cc(Oc4cc(C)c5[nH]c(=O)oc5c4)nc(N)n3)CC1)C(=O)N2` [(37)] registered a Ki of 65 nM.

With `COCc1nc2c(C)cc(Oc3cc(N4CCC(N5CCc6cc(OC)ccc6NC5=O)CC4)ncn3)cc2[nH]1` [(38)], the Ki came out at 10 nM. This Ki is about 6.5-fold lower than that of the compound before.

In turn, `COCc1nc2cc(Oc3cc(N4CCC5(CC4)OC(=O)Nc4ncccc45)ncn3)cc(C)c2[nH]1` [(39)] displayed a Ki of 7 nM.

Take `COc1ccc2c(c1)CCN(C1CCN(c3cc(Oc4cc(C)c5[nH]c(=O)oc5c4)nc(OC)n3)CC1)C(=O)N2` [(40)]: the Ki was found to be 8 nM.

Take `COc1nc(Oc2cc(C)c3[nH]c(=O)oc3c2)cc(N2CCC3(CC2)OC(=O)Nc2ncccc23)n1` [(41)]: the Ki came out at 3 nM.

As for `COc1ccc2c(c1)CCN(C1CCN(c3cc(Oc4cc(C)c5nc(C6CC6)[nH]c5c4)ncn3)CC1)C(=O)N2` [(42)], the Ki was found to be 2 nM. Against the preceding compound, the Ki is about 1.5-fold lower.

`Cc1cc(Oc2cc(N3CCC(n4c(=O)[nH]c5ncccc54)CC3)ncn2)cc2[nH]c(C3CC3)nc12` [(43)] displayed a Ki of 6 nM.

Regarding `Cc1cc(Oc2cc(N3CCC4(CC3)OC(=O)Nc3ncccc34)ncn2)cc2[nH]c(C3CC3)nc12` [(44)], the Ki worked out at 1 nM. This Ki is about 6-fold lower than that of the compound before.

`COc1ccc2c(c1)CCN(C1CCN(c3cc(Oc4cc(C)c5[nH]c(=O)oc5c4)nc(C4CC4)n3)CC1)C(=O)N2` [(45)] had a Ki of 81 nM.

`COc1ccc2c(c1)CCN(C1CCN(c3nc(Cl)cc(Oc4cc(C)c5[nH]c(=O)oc5c4)n3)CC1)C(=O)N2` [(46)] displayed a Ki of 194 nM.

Take `COc1ccc2c(c1)CCN(C1CCN(c3cc(Oc4ccc5[nH]c(=O)oc5c4)ncn3)CC1)C(=O)N2` [(47)]: the affinity, expressed as Ki, was 47 nM.

Regarding `COc1ccc2c(c1)CCN(C1CCN(c3cc(Oc4ccc(NC(C)=O)c(C)c4)ncn3)CC1)C(=O)N2` [(48)], the Ki is 96 nM.

The compound `COc1ccc2c(c1)CCN(C1CCN(c3cc(Oc4ccc(N)c(C)c4)ncn3)CC1)C(=O)N2` [(49)] registered a Ki of 154 nM.

`Cc1nc2cc(Oc3cc(N4CCC5(CC4)OC(=O)Nc4ncccc45)ncn3)cc(Cl)c2[nH]1` [(51)] came in with a Ki of 3 nM.

Compound `Cc1cc(Oc2cc(N3CCC(n4c(=O)[nH]c5ncccc54)CC3)ncn2)cc2[nH]c([C@@H]3CCCO3)nc12` [(52)] registered a Ki of 27 nM.
